# Assays:
# Test in all cases: Test E preemergence
# Type in all cases: in vivo
# Settings in all cases: scale 0 to 100
# [1] = tested on: Brazilian crabgrass (Digitaria horizontalis)
# In short: (§1)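 Preemergence: seeds in silt loam treated with compound in non-phytotoxic solvent with surfactant. Postemergence: plants at 1- to 4-leaf stage (2–18 cm) in peat-based medium sprayed likewise. Greenhouse 14–21 days, then visual rating vs controls, 0 (no effect) to 100 (complete control).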
# [2] = tested on: Italian ryegrass (Lolium multiflorum)
# In short: as §1
# [3] = tested on: Surinam grass (Brachiaria decumbens)
# In short: as §1
# [4] = tested on: barnyardgrass (Echinochloa crus-galli)
# In short: as §1
# [5] = tested on: dayflower (Virginia (VA) dayflower, Commelina virginica)
# In short: as §1
# [6] = tested on: fall panicum (Panicum dichotomiflorum)
# In short: as §1
# [7] = tested on: field bindweed (Convolvulus arvensis)
# In short: as §1
# [8] = tested on: giant foxtail (Setaria faberii)
# In short: as §1
# [9] = tested on: goosegrass (Eleusine indica)
# In short: as §1
# [10] = tested on: green foxtail (Setaria viridis)
# In short: as §1
# [11] = tested on: hairy beggarticks (Bidens pilosa)
# In short: as §1
# kochia (Kochia scoparia) = tested on: kochia (Kochia scoparia)
# In short: as §1
# [12] = tested on: lambsquarters (Chenopodium album)
# In short: as §1
# [13] = tested on: large (Lg) crabgrass (Digitaria sanguinalis)
# In short: as §1
# [14] = tested on: morningglory (Ipomoea coccinea)
# In short: as §1
# [15] = tested on: nightshade (eastern black nightshade, Solanum ptycanthum)
# In short: as §1
# [16] = tested on: palmer pigweed (Amaranthus palmeri)
# In short: as §1
# [17] = tested on: ragweed (common ragweed, Ambrosia elatior)
# In short: as §1
# [18] = tested on: velvetleaf (Abutilon theophrasti)
# In short: as §1
# [19] = tested on: waterhemp (common waterhemp, Amaranthus rudis)
# In short: as §1
# [20] = tested on: yellow nutsedge (Cyperus esculentus)
# In short: as §1
smiles,measurement,setting,value
"N#Cc1cccc(Oc2ncc(Cl)cn2)c1Oc1ncc(C(F)(F)F)cn1 [Compound 38, 3-[(5-chloro-2-pyrimidinyl)oxy]-2-[[5-(trifluoromethyl)-2-pyrimidinyl]oxy]-benzonitrile]","Plant response rating, Crabgrass, Brazil",[1]; 16 g ai/ha,80
same,"Plant response rating, Crabgrass, Brazil",[1]; 31 g ai/ha,98
same,"Plant response rating, Crabgrass, Brazil",[1]; 62 g ai/ha,100
same,"Plant response rating, Crabgrass, Brazil",[1]; 125 g ai/ha,100
same,"Plant response rating, Ryegrass, Italian",[2]; 16 g ai/ha,0
same,"Plant response rating, Ryegrass, Italian",[2]; 31 g ai/ha,25
same,"Plant response rating, Ryegrass, Italian",[2]; 62 g ai/ha,65
same,"Plant response rating, Ryegrass, Italian",[2]; 125 g ai/ha,80
same,"Plant response rating, Surinam Grass",[3]; 16 g ai/ha,0
same,"Plant response rating, Surinam Grass",[3]; 31 g ai/ha,0
same,"Plant response rating, Surinam Grass",[3]; 62 g ai/ha,15
same,"Plant response rating, Surinam Grass",[3]; 125 g ai/ha,40
same,"Plant response rating, Barnyardgrass",[4]; 16 g ai/ha,0
same,"Plant response rating, Barnyardgrass",[4]; 31 g ai/ha,10
same,"Plant response rating, Barnyardgrass",[4]; 62 g ai/ha,70
same,"Plant response rating, Barnyardgrass",[4]; 125 g ai/ha,90
same,"Plant response rating, Dayflower, VA",[5]; 16 g ai/ha,0
same,"Plant response rating, Dayflower, VA",[5]; 31 g ai/ha,0
same,"Plant response rating, Dayflower, VA",[5]; 62 g ai/ha,20
same,"Plant response rating, Dayflower, VA",[5]; 125 g ai/ha,60
same,"Plant response rating, Panicum, Fall",[6]; 16 g ai/ha,0
same,"Plant response rating, Panicum, Fall",[6]; 31 g ai/ha,98
same,"Plant response rating, Panicum, Fall",[6]; 62 g ai/ha,100
same,"Plant response rating, Panicum, Fall",[6]; 125 g ai/ha,100
same,"Plant response rating, Field Bindweed",[7]; 16 g ai/ha,35
same,"Plant response rating, Field Bindweed",[7]; 31 g ai/ha,70
same,"Plant response rating, Field Bindweed",[7]; 62 g ai/ha,95
same,"Plant response rating, Field Bindweed",[7]; 125 g ai/ha,65
same,"Plant response rating, Foxtail, Giant",[8]; 16 g ai/ha,5
same,"Plant response rating, Foxtail, Giant",[8]; 31 g ai/ha,70
same,"Plant response rating, Foxtail, Giant",[8]; 62 g ai/ha,100
same,"Plant response rating, Foxtail, Giant",[8]; 125 g ai/ha,100
same,"Plant response rating, Goosegrass",[9]; 16 g ai/ha,30
same,"Plant response rating, Goosegrass",[9]; 31 g ai/ha,50
same,"Plant response rating, Goosegrass",[9]; 62 g ai/ha,90
same,"Plant response rating, Goosegrass",[9]; 125 g ai/ha,100
same,"Plant response rating, Foxtail, Green",[10]; 16 g ai/ha,5
same,"Plant response rating, Foxtail, Green",[10]; 31 g ai/ha,30
same,"Plant response rating, Foxtail, Green",[10]; 62 g ai/ha,100
same,"Plant response rating, Foxtail, Green",[10]; 125 g ai/ha,100
same,"Plant response rating, Beggarticks",[11]; 16 g ai/ha,0
same,"Plant response rating, Beggarticks",[11]; 31 g ai/ha,0
same,"Plant response rating, Beggarticks",[11]; 62 g ai/ha,0
same,"Plant response rating, Beggarticks",[11]; 125 g ai/ha,35
same,"Plant response rating, Kochia",kochia (Kochia scoparia); 16 g ai/ha,80
same,"Plant response rating, Kochia",kochia (Kochia scoparia); 31 g ai/ha,98
same,"Plant response rating, Kochia",kochia (Kochia scoparia); 62 g ai/ha,100
same,"Plant response rating, Kochia",kochia (Kochia scoparia); 125 g ai/ha,100
same,"Plant response rating, Lambsquarters",[12]; 16 g ai/ha,98
same,"Plant response rating, Lambsquarters",[12]; 31 g ai/ha,100
same,"Plant response rating, Lambsquarters",[12]; 62 g ai/ha,100
same,"Plant response rating, Lambsquarters",[12]; 125 g ai/ha,100
same,"Plant response rating, Crabgrass, Large",[13]; 16 g ai/ha,50
same,"Plant response rating, Crabgrass, Large",[13]; 31 g ai/ha,75
same,"Plant response rating, Crabgrass, Large",[13]; 62 g ai/ha,100
same,"Plant response rating, Crabgrass, Large",[13]; 125 g ai/ha,100
same,"Plant response rating, Morningglory",[14]; 16 g ai/ha,0
same,"Plant response rating, Morningglory",[14]; 31 g ai/ha,0
same,"Plant response rating, Morningglory",[14]; 62 g ai/ha,50
same,"Plant response rating, Morningglory",[14]; 125 g ai/ha,35
same,"Plant response rating, Nightshade",[15]; 16 g ai/ha,5
same,"Plant response rating, Nightshade",[15]; 31 g ai/ha,95
same,"Plant response rating, Nightshade",[15]; 62 g ai/ha,98
same,"Plant response rating, Nightshade",[15]; 125 g ai/ha,100
same,"Plant response rating, Pigweed, Palmer",[16]; 16 g ai/ha,60
same,"Plant response rating, Pigweed, Palmer",[16]; 31 g ai/ha,100
same,"Plant response rating, Pigweed, Palmer",[16]; 62 g ai/ha,98
same,"Plant response rating, Pigweed, Palmer",[16]; 125 g ai/ha,100
same,"Plant response rating, Ragweed",[17]; 16 g ai/ha,40
same,"Plant response rating, Ragweed",[17]; 31 g ai/ha,40
same,"Plant response rating, Ragweed",[17]; 62 g ai/ha,60
same,"Plant response rating, Ragweed",[17]; 125 g ai/ha,70
same,"Plant response rating, Velvetleaf",[18]; 16 g ai/ha,20
same,"Plant response rating, Velvetleaf",[18]; 31 g ai/ha,65
same,"Plant response rating, Velvetleaf",[18]; 62 g ai/ha,85
same,"Plant response rating, Velvetleaf",[18]; 125 g ai/ha,100
same,"Plant response rating, Waterhemp",[19]; 16 g ai/ha,50
same,"Plant response rating, Waterhemp",[19]; 31 g ai/ha,98
same,"Plant response rating, Waterhemp",[19]; 62 g ai/ha,98
same,"Plant response rating, Waterhemp",[19]; 125 g ai/ha,100
same,"Plant response rating, Nutsedge, Yellow",[20]; 16 g ai/ha,0
same,"Plant response rating, Nutsedge, Yellow",[20]; 31 g ai/ha,0
same,"Plant response rating, Nutsedge, Yellow",[20]; 62 g ai/ha,20
same,"Plant response rating, Nutsedge, Yellow",[20]; 125 g ai/ha,65

# From patent US20170190671A1, “BIS(ARYL)CATECHOL DERIVATIVES AS HERBICIDES” (E I DU PONT DE NEMOURS AND COMPANY, priority 2014, published 2017)
